Measurements taken from patent publication US12557815B2, “Herbicide combinations comprising glufosinate and pyraflufen-ethyl” (BASF SE, priority 2020, dated 2026).

Test system: Kochia (Bassia scoparia)
Experiment: Greenhouse post emergence treatment, visual herbicidal control on a scale from 0 to 100
Type: in vivo
Source text: Synergism can be described as an interaction where the combined effect of two or more compounds is greater than the sum of the individual effects of each of the compounds. The presence of a synergistic effect in terms of percent control, between two mixing partners (X and Y) can be calculated using the Colby equation (Colby, S. R., 1967, Calculating Synergistic and Antagonistic Responses in Herbicide Combinations, Weeds, 15, 21-22):
When the observed combined control effect is greater than the expected (calculated) combined control effect (E), then the combined effect is synergistic.
Weeds included Kochia (Bassia scoparia). However, the herbicidal effect afforded by the compounds, mixtures or compositions is not limited to these species. The analysis of synergism or antagonism between the mixtures or compositions was determined using Colby's equation.
Pots with 0.3 L of volume were filled with soil (SunGro Horticulture, Agawam, MA 01001) to grow one plant per pot in the greenhouse until the desired developmental stage. Environmental conditions inside the greenhouse were set up for 25° C., 75% relative humidity, and 12 h light day^−1 with natural sunlight or 500 […] PAR for cloudy days. […] During this time, the plants were tended, and their response to the individual treatments was evaluated. […]

Structure (SMILES) | Herbicidal activity against Kochia (21 DAT) Found (Glufosinate 420 g ai/ha alone, visual scale 0 to 100 (100 = complete destruction), mean of three replications) | Herbicidal activity against Kochia (21 DAT) Found (Pyraflufen 0.2 g ai/ha alone, visual scale 0 to 100, mean of three replications)
CP(=O)(O)CCC(N)C(=O)O (racemic) [Glufosinate, (2RS)-2-amino-4-[hydroxy(methyl)phosphinoyl]butyric acid] | 25 | 
CCOC(=O)COc1cc(-c2nn(C)c(OC(F)F)c2Cl)c(F)cc1Cl [Pyraflufen, pyraflufen-ethyl] |  | 32
